# In ChEMBL document CHEMBL1201862, “PubChem BioAssay data set” (2004):
# The source made the active and inactive calls.
# Key:
# [1] = NIH-3T3 fibroblast cytotoxicity, dose response, cytotoxicity control, cell-based, fluorescence, Alamar Blue, secondary assay (AID 2327); assay type: functional;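 further: NIH-3T3 mouse fibroblasts cultured with fluconazole at 8 µg/mL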
# [2] = C. albicans growth with fluconazole, confirmation, fluorescence, retest (AID 2467); assay type: functional, cell-based
# [3] = THP-1 cell cytotoxicity, dose response, cytotoxicity control for non-replicating M. tuberculosis project (AID 489025); assay type: functional
# [4] = HepG2 cell cytotoxicity, dose response, cytotoxicity control for non-replicating M. tuberculosis project (AID 489018); assay type: functional; details: Mycobacterium tuberculosis
# [5] = Vero E6 cell cytotoxicity, dose response, cytotoxicity control for non-replicating M. tuberculosis project, secondary assay (AID 492998); assay type: functional, VeroE6; details: Vero C1008
# cells = assay type: functional
# HEK293 [6] = assay: cytotoxicity in HEK293T NF-kB-Luc cells, SAR follow-up, cytotoxicity control for NF-kB activator project, cell-based, resazurin fluorescence (AID 493251); assay type: functional; details: Homo sapiens
# Jurkat = assay: SAR Analysis of small molecule inhibitors of T-cell specific antigen receptor-induced NF-kB activation in a Jurkat cell line using a luminescence assay - Set 2. [Related pubchem assays (depositor defined):AID435003, AID435012, AID465]; assay type: functional, cell-based; details: Homo sapiens
# HEK293 [7] = assay: SAR Analysis of small molecule inhibitors of T-cell specific antigen receptor-induced NF-kB activation in a HEK-293T cell line using a luminescence assay - Set 2. [Related pubchem assays (depositor defined):AID435003, AID435012, AID489026]; assay type: functional, cell-based; details: Homo sapiens
# [8] = Luminescence Cell-Based/Microorganism Confirmation at Dose of Inhibitors of Trypanosoma cruzi Infection. [Related pubchem assays: 1885, 1968 ]; assay type: functional
# [9] = inhibitors of intracellular T. cruzi replication, confirmation, NIH3T3 host cells, beta-gal luminescence (AID 2044); assay type: functional, cell-based;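 further: intracellular parasites grown in NIH/3T3 mouse fibroblasts as host cells; luminescent beta-galactosidase reporter signal from transgenic T. cruzi replicating inside host cells; inhibitors lower the luminescence signal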
# [10] = cytotoxicity toward NIH3T3 fibroblasts, dose response, counter-screen, cell-based, ATP luminescence, mouse fibroblasts (AID 2010); assay type: functional;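 further: cells exposed to compound for about 90 hours before reading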
# [11] = inhibitors of Trypanosoma cruzi host-cell infection, confirmation, beta-gal luminescence, NIH3T3 host cells (AID 2630); assay type: functional, cell-based; details: Mus musculus
# Cytochrome P450 3A4 = Cytochrome P450 3A4 (Homo sapiens, UniProt P08684);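 further: CYP3A4 tested as one member of a cytochrome P450 panel screen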
# Cytochrome P450 3A4, sequence (P08684 whole entry): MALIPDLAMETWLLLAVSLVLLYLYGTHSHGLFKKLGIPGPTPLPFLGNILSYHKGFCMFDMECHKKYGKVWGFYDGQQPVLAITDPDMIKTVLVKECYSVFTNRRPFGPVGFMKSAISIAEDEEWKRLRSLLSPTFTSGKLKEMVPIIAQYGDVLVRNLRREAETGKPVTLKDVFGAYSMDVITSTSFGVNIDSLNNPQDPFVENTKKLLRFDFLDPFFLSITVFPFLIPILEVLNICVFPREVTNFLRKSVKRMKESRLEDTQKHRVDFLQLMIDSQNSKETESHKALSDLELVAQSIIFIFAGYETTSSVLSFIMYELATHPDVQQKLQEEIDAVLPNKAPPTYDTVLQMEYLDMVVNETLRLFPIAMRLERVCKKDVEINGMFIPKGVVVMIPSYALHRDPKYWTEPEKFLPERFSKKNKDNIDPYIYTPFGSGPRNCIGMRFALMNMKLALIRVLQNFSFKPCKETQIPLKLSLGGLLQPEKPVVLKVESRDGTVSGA
# Cytochrome P450 1A2 = molecular target: T1, Cytochrome P450 1A2 (Homo sapiens, UniProt P05177);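 further: PubChem cytochrome P450 panel assay, CYP1A2 panel member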
# T1 sequence (P05177 whole entry): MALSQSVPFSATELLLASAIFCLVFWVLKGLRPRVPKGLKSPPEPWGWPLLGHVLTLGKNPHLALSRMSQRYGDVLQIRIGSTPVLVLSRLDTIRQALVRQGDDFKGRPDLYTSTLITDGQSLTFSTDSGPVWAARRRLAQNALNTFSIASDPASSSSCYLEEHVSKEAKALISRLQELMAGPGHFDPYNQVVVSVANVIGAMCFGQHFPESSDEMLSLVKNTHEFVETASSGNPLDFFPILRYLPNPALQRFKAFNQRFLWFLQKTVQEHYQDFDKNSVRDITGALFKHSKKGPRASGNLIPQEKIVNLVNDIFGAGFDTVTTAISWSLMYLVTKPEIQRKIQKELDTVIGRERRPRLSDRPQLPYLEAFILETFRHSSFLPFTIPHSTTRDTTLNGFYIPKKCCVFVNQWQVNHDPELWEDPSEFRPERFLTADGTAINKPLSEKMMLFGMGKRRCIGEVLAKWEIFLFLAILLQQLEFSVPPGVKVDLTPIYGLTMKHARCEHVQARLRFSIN
# [12] = Luminescence Cell-Based Dose Retest to Confirm Inhibitors of Cancer Stem Cells. [Related pubchem assays (depositor defined):AID2717, AID2721]; assay type: functional, Homo sapiens; details: Homo sapiens
# [13] = cytotoxicity in HMLE control line with eGFP shRNA, dose response, counter-screen for HMLE_sh_ECad selective toxicity project, cell-based, HMLE_sh_eGFP, luminescence (AID 463074); assay type: functional, Homo sapiens;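 further: HMLE human mammary epithelial cells expressing control shRNA against eGFP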
smiles,measurement,setting,value
Cc1ccc(NC(=O)c2ccc([N+](=O)[O-])o2)cc1C,EC50,[1],14.2 µM (active)
same,EC50,[2],1.87 µM (active)
same,CC50,[3],16.2 µM (active)
same,CC50,[4],15.1 µM (active)
same,CC50,[5],6.87 µM (active)
same,IC50,cells,0.7 µM (active)
same,IC50,HEK293 [6],47.3 µM (inactive)
same,IC50,Jurkat,6.86 µM (active)
same,IC50,HEK293 [7],38.6 µM (inactive)
CC1CCCN(C(=O)Cc2cn(Cc3cccc(Cl)c3)c3ccccc23)C1 (configuration not stated),EC50,[8],2.81 µM (active)
same,EC50,[9],1.79 µM (active)
same,EC50,[10],> 60 µM (not active)
same,EC50,[11],2.81 µM (active)
O=C(c1ccc2c(c1)N(Cc1ccc(F)cc1)C(=O)CS2)N1CCOCC1,AC50,Cytochrome P450 3A4,25.1 µM (inconclusive)
same,AC50,Cytochrome P450 1A2,inconclusive
CCC(C(=O)Nc1cc(OC)c(NC(=O)c2ccccc2)cc1OC)c1ccccc1 (configuration not stated),AC50,[12],4.24 µM (active)
same,AC50,[13],51.9 µM (active)
